According to PubChem BioAssay (NCI):
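GI50 marks 50% less growth. Definition used: TGI = concentration required for complete inhibition of growth.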

Experiments:
Assay in all cases: NCI tumour cell line growth inhibition, 384-well format
[1] = tested on: A498 renal
[2] = tested on: A549 NSCLC
[3] = tested on: ACHN renal
[4] = tested on: BT-549 breast
[5] = tested on: CAKI-1 renal
[6] = tested on: COLO 205 colon
[7] = tested on: DU-145 prostate
[8] = tested on: EKVX NSCLC
[9] = tested on: HCC-2998 colon
[10] = tested on: HCT-116 colon
[11] = tested on: HCT-15 colon
[12] = tested on: HL-60(TB) leukemia
[13] = tested on: HOP-62 NSCLC
[14] = tested on: HOP-92 NSCLC
[15] = tested on: HS 578T breast
[16] = tested on: HT29 colon
[17] = tested on: IGROV1 ovarian
[18] = tested on: KM12 colon
[19] = tested on: LOX IMVI melanoma
[20] = tested on: M14 melanoma
[21] = tested on: MALME-3M melanoma
[22] = tested on: MCF7 breast
[23] = tested on: MDA-MB-231 breast
[24] = tested on: MDA-MB-435 melanoma
[25] = tested on: MDA-MB-468 breast
[26] = tested on: MOLT-4 leukemia
[27] = tested on: NCI-H226 lung
[28] = tested on: NCI-H23 lung
[29] = tested on: NCI-H322M lung
[30] = tested on: NCI-H460 NSCLC
[31] = tested on: NCI-H522 lung
[32] = tested on: NCI/ADR-RES ovarian
[33] = tested on: OVCAR-3 ovarian
[34] = tested on: OVCAR-4 ovarian
[35] = tested on: OVCAR-5 ovarian
[36] = tested on: OVCAR-8 ovarian
[37] = tested on: PC-3 prostate
[38] = tested on: RPMI-8226 leukemia
[39] = tested on: RXF 393 renal
[40] = tested on: SF-268 CNS
[41] = tested on: SF-295 CNS
[42] = tested on: SF-539 CNS
[43] = tested on: SK-MEL-28 melanoma
[44] = tested on: SK-MEL-5 melanoma
[45] = tested on: SK-OV-3 ovarian
[46] = tested on: SN12C renal
[47] = tested on: SNB-19 CNS
[48] = tested on: SNB-75 CNS
[49] = tested on: SR leukemia
[50] = tested on: T-47D breast
[51] = tested on: TK-10 renal
[52] = tested on: U251 glioblastoma
[53] = tested on: UACC-257 melanoma
[54] = tested on: UACC-62 melanoma

Cc1c(Cn2c(C)nc3c(C(=O)O)cc(N4CCOCC4)cc32)cccc1C(F)(F)F
GI50 [1]: 0.462 µM
TGI [1]: 8.29 µM
GI50 [2]: 62.1 µM
TGI [2]: > 100 µM
GI50 [3]: 20.8 µM
TGI [3]: > 100 µM
GI50 [4]: 67.4 µM
TGI [4]: > 100 µM
GI50 [5]: 57.7 µM
TGI [5]: > 100 µM
GI50 [6]: 99.8 µM
TGI [6]: > 100 µM
GI50 [7]: 52.1 µM
TGI [7]: > 100 µM
GI50 [8]: 58.1 µM
TGI [8]: > 100 µM
GI50 [9]: 45.2 µM
TGI [9]: > 100 µM
GI50 [10]: 38.2 µM
TGI [10]: > 100 µM
GI50 [11]: 3.97 µM
TGI [11]: > 100 µM
GI50 [12]: 18.3 µM
TGI [12]: > 100 µM
GI50 [13]: 24.5 µM
TGI [13]: > 100 µM
GI50 [14]: 72.7 µM
TGI [14]: > 100 µM
GI50 [15]: 82.8 µM
TGI [15]: > 100 µM
GI50 [16]: 54.7 µM
TGI [16]: > 100 µM
GI50 [17]: 64.4 µM
TGI [17]: > 100 µM
GI50 [18]: 73 µM
TGI [18]: > 100 µM
GI50 [19]: 33.1 µM
TGI [19]: > 100 µM
GI50 [20]: 30.1 µM
TGI [20]: > 100 µM
GI50 [21]: > 100 µM
TGI [21]: > 100 µM
GI50 [22]: 59.9 µM
TGI [22]: > 100 µM
GI50 [23]: 97.2 µM
TGI [23]: > 100 µM
GI50 [24]: 75 µM
TGI [24]: > 100 µM
GI50 [25]: 49.2 µM
TGI [25]: > 100 µM
GI50 [26]: 19.6 µM
TGI [26]: 41.4 µM
GI50 [27]: 64.9 µM
TGI [27]: > 100 µM
GI50 [28]: 85.8 µM
TGI [28]: > 100 µM
GI50 [29]: 60.9 µM
TGI [29]: > 100 µM
GI50 [30]: 33.9 µM
TGI [30]: > 100 µM
GI50 [31]: 75.6 µM
TGI [31]: > 100 µM
GI50 [32]: 3.1 µM
TGI [32]: 11.1 µM
GI50 [33]: 39.3 µM
TGI [33]: > 100 µM
GI50 [34]: 31.8 µM
TGI [34]: > 100 µM
GI50 [35]: 52.4 µM
TGI [35]: > 100 µM
GI50 [36]: 44.1 µM
TGI [36]: > 100 µM
GI50 [37]: 26.9 µM
TGI [37]: > 100 µM
GI50 [38]: 46.7 µM
TGI [38]: > 100 µM
GI50 [39]: 14.6 µM
TGI [39]: > 100 µM
GI50 [40]: 70.6 µM
TGI [40]: > 100 µM
GI50 [41]: 22.2 µM
TGI [41]: > 100 µM
GI50 [42]: 54 µM
TGI [42]: > 100 µM
GI50 [43]: > 100 µM
TGI [43]: > 100 µM
GI50 [44]: 18 µM
TGI [44]: 57.8 µM
GI50 [45]: 61.8 µM
TGI [45]: > 100 µM
GI50 [46]: 30.6 µM
TGI [46]: > 100 µM
GI50 [47]: 89.1 µM
TGI [47]: > 100 µM
GI50 [48]: 63.4 µM
TGI [48]: > 100 µM
GI50 [49]: 18.5 µM
TGI [49]: 40.8 µM
GI50 [50]: > 100 µM
TGI [50]: > 100 µM
GI50 [51]: 35.2 µM
TGI [51]: > 100 µM
GI50 [52]: 48.8 µM
TGI [52]: > 100 µM
GI50 [53]: 56.3 µM
TGI [53]: > 100 µM
GI50 [54]: 75.8 µM
TGI [54]: > 100 µM
